According to patent US20150025120A1, “PYRAZOLE-ALCOHOL COMPOUNDS AND PHARMACEUTICAL USE THEREOF” (JAPAN TOBACCO INC., priority 2013, published 2015):

Assays:
[1] = biological target: T1, hERG current (hERG-transfected HEK293 cells) (Homo sapiens, UniProt Q12809); experiment: hERG whole cell patch clamp test; type: cell-based
T1 construct: host or cells: HEK293
Procedure: Using human ether-a-go-go related gene (hERG)-transfected HEK293 cells (Cytomyx Limited), an influence on hERG current was examined according to the whole cell patch clamp technique. The hERG-transfected HEK293 cells were passaged using a CO2 incubator (BNA-111, TABAI ESPEC CORP.) under the set conditions of 37° C., 5% CO2, saturated humidity. Culture containers used were Collagen Type I Coated 75 cm^2 flask (4123-010, AGC TECHNO GLASS CO., Ltd.) and Collagen Type I Coated 35 mm culture dish (4000-010, AGC TECHNO GLASS CO., Ltd.). The culture medium used was E-MEM (Eagle Minimum Essential Medium (Earle's Salts, Nikken biomedical laboratory) added with 10% FCS (Fetal calf serum, BioWest, L.L.C.) and 1% MEM Non-Essential Amino Acids Solution (NEAA, Invitrogen Corporation). Geneticin for the selection of hERG gene expressing cells was added thereto to a concentration of 400 μg/mL. As the cells for the measurement, 3×10^4 hERG-transfected HEK293 cells were plated on a 35 mm culture dish 4 to 7 days before measurement of the hERG current. The culture dish produced for the measurement contained the above-mentioned culture medium without geneticin (Invitrogen Corporation).
The highest evaluation concentration of each compound was determined from the highest concentration at which precipitation was not found in the standard extracellular fluid (NaCl: 140 mmol/L, KCl: 2.5 mmol/L, MgCl2: 2 mmol/L, CaCl2: 2 mmol/L, HEPES: 10 mmol/L, glucose: 10 mmol/L (adjusted to pH 7.4 with Tris-base)). As the application method, each solution to be applied was ejected from a Y-tube having a tip diameter of about 0.25 mm, which was adjacent (about 2 mm) to the cells, and applied to the cells. The ejection rate was about 0.4 mL/min.
The experiment was performed at room temperature under a phase contrast microscope. The 35 mm culture dish plated with the cells was set on a measurement apparatus, and the standard extracellular fluid was continuously applied to the cells from the Y-tube. A glass electrode for the measurement was filled with an intracellular fluid (Potassium Gluconate: 130 mmol/L, KCl: 20 mmol/L, MgCl2: 1 mmol/L, ATP-Mg: 5 mmol/L, EGTA: 3.5 mmol/L, HEPES: 10 mmol/L (adjusted to pH 7.2 with Tris-base)). A conventional whole cell patch clamp method was applied to the cells, and the maintenance electric potential was set to −80 mV. Under a fixed electric potential, the whole cell current was amplified by an amplifier for patch clamp (AXOPATCH-200B, Axon Instruments, Inc.), and the data was loaded into a computer (IMC-P642400, Intermedical Co., Ltd.) using a data acquisition analysis software (pCLAMP 9.2, Axon Instruments, Inc.).
The measurement of the hERG current was performed in the following two steps. In both cases, the hERG current was initiated by giving a command potential (maintenance electric potential −80 mV, prepulse+20 mV, 1.5 sec, test-pulse −50 mV, 1.5 sec).
Step (1): The above-mentioned command potential was given at 0.1 Hz for 2 min.
Step (2): The above-mentioned command potential was subjected to P/3 subtraction of pCLAMP 9.2 to remove leak current. This was repeated three times and an average thereof was taken as hERG current.
Subsequent to step (1), Step (2) was performed (about 3 min), and the maximum tail current obtained by applying a test-pulse to the hERG current obtained by the method of step (2) was taken as hERG current value. Hereafter, the operations of (1) and (2) were alternately repeated until completion of the experiment and the hERG current value was measured.
Stable hERG current value was recorded three times (about 10 min), and the standard extracellular fluid was instantaneously exchanged with each application fluid. The hERG current value was measured three times (about 10 min) in the same manner during perfusion of the application fluid, and the current value obtained by the 3rd measurement was taken as hERG current value after perfusion of the application fluid. […]

tissue PDH activity = experiment: Ex vivo PDH activation assay (liver and epididymal adipose tissue after oral administration); type: in vivo, Sprague-Dawley rats; conditions: 3 mg/kg, rat, mean ± standard deviation
Procedure: The action of test compound on tissue PDH activity was evaluated. NADH production was detected via p-iodonitrotetrazolium violet (INT)-coupled system to measure PDH activity.
Normal male Sprague-Dawley rats were randomly allocated to the vehicle group and the test compound groups. The vehicle (0.5% aqueous methylcellulose solution, 5 mL/kg) or the test compound was orally administered to the rats. At 5 or 20 hr after administration, the rats were anesthetized with an intraperitoneal injection of sodium pentobarbital (60 mg/kg), and liver slices and epididymal adipose tissues were collected.
To the liver slices were rapidly added 9 volumes of ice-cold homogenization buffer (0.25 mol/L sucrose, 5 mmol/L tris(hydroxymethyl)aminomethane hydrochloride (pH 7.5), 2 mmol/L EDTA), and the mixtures were homogenized using a Polytron homogenizer. The homogenates were centrifuged at 600×g, 4° C. for 10 min to obtain the supernatant. The supernatants (1 mL) were centrifuged at 16,000×g, 4° C. for 10 min to collect the precipitates. The precipitates were washed by resuspension in the homogenization buffer (1 mL) and centrifuged in the same manner. The precipitates were frozen with liquid nitrogen and stored at −80° C. as the liver mitochondrial fraction.
To the adipose tissues were rapidly added 3 volumes of an ice-cold homogenization buffer, and the mixtures were homogenized using a Polytron homogenizer. The homogenates were centrifuged at 600×g, 4° C. for 10 min to obtain the supernatant. The supernatants were centrifuged at 16,000×g, 4° C. for 10 min to collect the precipitates. The precipitates were washed by resuspension in the homogenization buffer (1 mL) and centrifuged in the same manner. The precipitates were frozen with liquid nitrogen and stored at −80° C. as the adipose tissue mitochondrial fraction.
The mitochondrial fractions were thawed and suspended with the sample buffer (0.25 mol/L sucrose, 20 mmol/L tris(hydroxymethyl)aminomethane hydrochloride (pH 7.5), 50 mmol/L potassium chloride, and 1 mL/L 4-(1,1,3,3-tetramethylbutyl)phenyl-polyethylene glycol (Triton X-100)). Active PDH activity (PDHa activity) and total PDH activity (PDHt activity) were measured to evaluate the PDH activity. For the measurement of the PDHt activity, equal amounts of the mitochondrial suspension and the activation buffer (0.25 mol/L sucrose, 20 mmol/L tris(hydroxymethyl)aminomethane hydrochloride (pH 7.5), 50 mmol/L potassium chloride, 1 mL/L Triton X-100, 4 mmol/L calcium chloride, 40 mmol/L magnesium chloride, 10 mmol/L sodium dichloroacetate) were mixed, and the mixtures were incubated at 37° C. for 10 min. Forty microliters of the mitochondrial suspensions diluted with a sample buffer were added to a 96-well microplate for activity measurement and blank measurement. Then 180 μL of the reaction mixture (0.056 mmol/L potassium phosphate buffer (pH 7.5), 5.6 mmol/L DL-carnitine, 2.8 mmol/L NAD, 0.22 mmol/L thiamin pyrophosphate, 0.11 mmol/L Coenzyme A, 1.1 mL/L Triton X-100, 1.1 mmol/L magnesium chloride, 1.1 g/L bovine serum albumin, 0.67 mmol/L INT, 7.2 μmol/L phenazine methosulfate, 28 mmol/L sodium oxamate) was added to each well, and then 20 μL of 50 mmol/L sodium pyruvate for activity measurement or water for blank measurement were added. The mixtures were incubated at room temperature under shading. The absorbances at 500-750 nm, which were attributable to reduction of INT, the final electron acceptor, were measured using a microplate reader over time and the changes in the absorbance were calculated. The PDH activity was calculated by subtraction of the change in absorbance of the blank well from that of the activity measurement well. The percentage of the PDHa activity to the PDHt activity was calculated and taken as an index of the PDH activation.

[2] = adipose tissue, 5 hr after oral administration
[3] = adipose tissue, 20 hr after oral administration
[4] = liver, 5 hr after oral administration
[5] = liver, 20 hr after oral administration

T1 sequence (Q12809 whole entry): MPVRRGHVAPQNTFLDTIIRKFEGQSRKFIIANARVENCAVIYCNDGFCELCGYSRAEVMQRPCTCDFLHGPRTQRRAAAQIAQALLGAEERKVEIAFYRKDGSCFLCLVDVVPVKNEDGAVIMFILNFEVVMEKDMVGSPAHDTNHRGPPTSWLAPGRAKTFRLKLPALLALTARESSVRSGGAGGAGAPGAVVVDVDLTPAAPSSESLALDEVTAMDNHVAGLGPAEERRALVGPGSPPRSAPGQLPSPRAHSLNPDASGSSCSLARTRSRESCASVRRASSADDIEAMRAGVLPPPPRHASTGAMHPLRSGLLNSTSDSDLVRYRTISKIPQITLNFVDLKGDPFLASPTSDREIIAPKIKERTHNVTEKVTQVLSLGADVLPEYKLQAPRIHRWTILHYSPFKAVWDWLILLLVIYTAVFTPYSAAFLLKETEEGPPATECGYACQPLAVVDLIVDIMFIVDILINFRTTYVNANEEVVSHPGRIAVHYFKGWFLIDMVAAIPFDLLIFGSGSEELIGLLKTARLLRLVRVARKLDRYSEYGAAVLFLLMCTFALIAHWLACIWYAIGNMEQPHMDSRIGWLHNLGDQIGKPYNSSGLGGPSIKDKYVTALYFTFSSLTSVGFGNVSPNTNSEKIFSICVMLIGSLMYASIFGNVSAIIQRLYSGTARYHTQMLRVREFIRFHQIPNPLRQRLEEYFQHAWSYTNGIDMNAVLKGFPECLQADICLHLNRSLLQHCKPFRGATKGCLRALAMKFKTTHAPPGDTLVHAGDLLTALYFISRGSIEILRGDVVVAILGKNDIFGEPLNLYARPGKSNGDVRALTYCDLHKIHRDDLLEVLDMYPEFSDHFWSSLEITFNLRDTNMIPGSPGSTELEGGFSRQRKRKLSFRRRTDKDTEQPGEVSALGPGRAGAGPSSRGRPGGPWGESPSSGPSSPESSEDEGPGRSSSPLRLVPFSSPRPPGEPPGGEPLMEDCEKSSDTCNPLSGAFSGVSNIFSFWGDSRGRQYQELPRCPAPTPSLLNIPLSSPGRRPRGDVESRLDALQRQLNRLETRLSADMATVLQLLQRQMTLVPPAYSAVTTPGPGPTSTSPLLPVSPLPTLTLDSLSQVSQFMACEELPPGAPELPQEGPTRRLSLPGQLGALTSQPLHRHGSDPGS

Row | Compound | hERG inhibition rate (%) ([1]; concentration 3 μmol/L) | hERG inhibition rate (%) ([1]; concentration 30 μmol/L) | PDHa activity (% PDHt activity) (tissue PDH activity; [2]) | PDHa activity (% PDHt activity) (tissue PDH activity; [3]) | PDHa activity (% PDHt activity) (tissue PDH activity; [4]) | PDHa activity (% PDHt activity) (tissue PDH activity; [5])
1 | CC(C)(O)COc1cc(-c2cnn(CCO)c2)c2c(c1)[C@@](O)(C(F)(F)F)c1ccccc1-2 [compound (C), (9R)-4-[1-(2-Hydroxyethyl)-1H-pyrazol-4-yl]-2-(2-hydroxy-2-methylpropoxy)-9-(trifluoromethyl)-9H-fluoren-9-ol] | 11.5% | 69.0% | 53 ± 4 % PDHt activity | 28 ± 7 % PDHt activity | 44 ± 5 % PDHt activity | 13 ± 3 % PDHt activity
2 | CC(C)(C(N)=O)n1cc(-c2cc(F)cc3c2-c2ccccc2[C@]3(O)C(F)(F)F)cn1 [compound (D), 2-{4-[(9R)-2-Fluoro-9-hydroxy-9-(trifluoromethyl)-9H-fluoren-4-yl]-1H-pyrazol-1-yl}-2-methylpropanamide] | 9.4% | 67.5% | 43 ± 7 % PDHt activity | 24 ± 3 % PDHt activity | 41 ± 15 % PDHt activity | 20 ± 1 % PDHt activity
